# Key:
# lambsquarters = test: Test B pre-/postemergence herbicide test; assay type: in vivo, Chenopodium album; settings: for Plant response rating (0 to 100 scale), Lambsquarters / Plant response rating, Lambsquarters: preemergence
# Method in brief: (§1)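 Herbicidal effect was judged by eye on a 0–100 scale after plants stood 13 to 15 days in the greenhouse following pre- or postemergence treatment with surfactant-containing formulations.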
# wheat = test: Test B postemergence herbicide test; assay type: in vivo, Triticum aestivum; set-up: key to Wheat plant response rating: 0 = no effect, 100 = complete control
# Method in brief: (§2)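 Greenhouse test; postemergence application to plants at 1–4 leaves (2–18 cm); paddy species at 2 leaves; evaluated visually vs controls at 13–15 days; scale 0–100 (100 = complete control).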
# ducksalad = test: Test B flooded paddy test; assay type: in vivo, Heteranthera limosa; settings: 1000 g ai/ha, scale 0 to 100 (0 no effect, 100 complete control)
# Method in brief: as §2
# large crabgrass = test: Test B pre-/postemergence herbicide test; assay type: in vivo, Digitaria sanguinalis; settings: for Plant response rating (0 to 100 scale), Crabgrass, Large / Plant response rating, Crabgrass, Large: preemergence
# Method in brief: as §1
# barnyardgrass [1] = test: Test B pre-/postemergence herbicide test; assay type: in vivo, Echinochloa crus-galli; settings: for Plant response rating (0 to 100 scale), Barnyardgrass / Plant response rating, Barnyardgrass: preemergence
# Method in brief: (§3)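 Greenhouse pot assay with simultaneous preemergence (treated seed) and postemergence (2–18 cm seedlings) applications of surfactant-containing, non-phytotoxic solvent formulations. Response scored visually 13–15 days later on a 0–100 scale, 100 meaning complete control.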
# barnyardgrass [2] = test: Test B flooded paddy test; assay type: in vivo, Echinochloa crus-galli; settings: 1000 g ai/ha, scale 0 to 100 (0 no effect, 100 complete control)
# Method in brief: as §2
# giant foxtail = test: Test B pre-/postemergence herbicide test; assay type: in vivo, Setaria faberi; settings: for Plant response rating (0 to 100 scale), Foxtail, Giant / Plant response rating, Foxtail, Giant: preemergence
# Method in brief: as §1
# [3] = system: small flower umbrella sedge; test: Test B flooded paddy test; assay type: in vivo, Cyperus difformis; settings: 1000 g ai/ha, scale 0 to 100 (0 no effect, 100 complete control)
# Method in brief: as §2
# pigweed = test: Test B pre-/postemergence herbicide test; assay type: in vivo, Amaranthus retroflexus; settings: for Plant response rating (0 to 100 scale), Pigweed / Plant response rating, Pigweed: preemergence
# Method in brief: as §1
# morningglory = test: Test B pre-/postemergence herbicide test; assay type: in vivo, Ipomoea coccinea; settings: for Plant response rating (0 to 100 scale), Morningglory / Plant response rating, Morningglory: preemergence
# Method in brief: as §3
# Surinam grass = test: Test B pre-/postemergence herbicide test; assay type: in vivo, Urochloa decumbens; settings: for Plant response rating (0 to 100 scale), Surinam Grass / Plant response rating, Surinam Grass: preemergence
# Method in brief: as §1
# blackgrass = test: Test B postemergence herbicide test; assay type: in vivo, Alopecurus myosuroides
# Method in brief: as §2
# cocklebur = test: Test B pre-/postemergence herbicide test; assay type: in vivo, Xanthium strumarium; settings: for Plant response rating (0 to 100 scale), Cocklebur / Plant response rating, Cocklebur: preemergence
# Method in brief: as §3
# rice = test: Test B flooded paddy test; assay type: in vivo, Oryza sativa; settings: 1000 g ai/ha, scale 0 to 100 (0 no effect, 100 complete control)
# Method in brief: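 Treated at 2-leaf (paddy) or 1–4-leaf, 2–18 cm (postemergence); greenhouse 13–15 d; visual score vs control, 0 none to 100 complete control; dash = not tested.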
# corn = test: Test B pre-/postemergence herbicide test; assay type: in vivo, Zea mays; settings: for Plant response rating (0 to 100 scale), Corn / Plant response rating, Corn: preemergence
# Method in brief: as §1
# wild oat = test: Test B postemergence herbicide test; assay type: in vivo, Avena fatua
# Method in brief: as §2
# [4] = 125 g ai/ha, 0 is no effect, 100 is complete control
# [5] = 125 g ai/ha, visual rating, scale 0 (no effect) to 100 (complete control), postemergence
# [6] = 500 g ai/ha, visual rating, 0 = no effect, 100 = complete control
# [7] = postemergence, 500 g ai/ha, scale 0 to 100, 0 is no effect, 100 is complete control
# [8] = 500 g ai/ha, visual rating 0-100, 0 no effect, 100 complete control
# [9] = postemergence, 125 g ai/ha, visual rating, scale 0 (no effect) to 100 (complete control)
# [10] = postemergence, 500 g ai/ha, visual rating, scale 0 (no effect) to 100 (complete control)
# [11] = 125 g ai/ha, 0 to 100 scale, 0 is no effect, 100 is complete control
# [12] = Postemergence, 500 g ai/ha, scale 0 (no effect) to 100 (complete control)
smiles,measurement,setting,value
CCn1nc(C(C)(C)C)cc1C(=O)Nc1cccc(OC(F)F)c1 [Compound 332],"Plant response rating (0 to 100 scale), Lambsquarters",lambsquarters; [4],90
same,Lambsquarters plant response rating,lambsquarters; [5],80
same,"Plant response rating, Lambsquarters",lambsquarters; [6],100
same,Lambsquarters plant response rating,lambsquarters; [7],100
same,Wheat plant response rating,wheat; [5],20
same,Wheat plant response rating,wheat; [7],30
same,Ducksalad plant response rating,ducksalad,90
same,"Plant response rating (0 to 100 scale), Crabgrass, Large",large crabgrass; [4],40
same,"Crabgrass, Large plant response rating",large crabgrass; [5],50
same,"Plant response rating, Crabgrass, Large",large crabgrass; [6],100
same,"Crabgrass, Large plant response rating",large crabgrass; [7],80
same,"Plant response rating (0 to 100 scale), Barnyardgrass",barnyardgrass [1]; [4],10
same,Barnyardgrass plant response rating,barnyardgrass [1]; [5],20
same,"Plant response rating, Barnyardgrass",barnyardgrass [1]; [6],60
same,Barnyardgrass plant response rating,barnyardgrass [1]; [7],60
same,Barnyardgrass plant response rating,barnyardgrass [2],60
same,"Plant response rating (0 to 100 scale), Foxtail, Giant",giant foxtail; [4],20
same,"Foxtail, Giant plant response rating",giant foxtail; [5],30
same,"Plant response rating, Foxtail, Giant",giant foxtail; [6],60
same,"Foxtail, Giant plant response rating",giant foxtail; [7],50
same,"Sedge, Umbrella plant response rating",[3],90
same,"Plant response rating (0 to 100 scale), Pigweed",pigweed; [4],100
same,Pigweed plant response rating,pigweed; [5],100
same,"Plant response rating, Pigweed",pigweed; [6],100
same,Pigweed plant response rating,pigweed; [7],100
same,"Plant response rating (0 to 100 scale), Morningglory",morningglory; [4],10
same,Morningglory plant response rating,morningglory; [5],40
same,"Plant response rating, Morningglory",morningglory; [6],30
same,Morningglory plant response rating,morningglory; [7],70
same,"Plant response rating (0 to 100 scale), Surinam Grass",Surinam grass; [4],10
same,Surinam Grass plant response rating,Surinam grass; [5],20
same,"Plant response rating, Surinam Grass",Surinam grass; [6],20
same,Surinam Grass plant response rating,Surinam grass; [7],40
same,Blackgrass plant response rating,blackgrass; [5],40
same,Blackgrass plant response rating,blackgrass; [7],80
same,"Plant response rating (0 to 100 scale), Cocklebur",cocklebur; [4],0
same,Cocklebur plant response rating,cocklebur; [5],30
same,"Plant response rating, Cocklebur",cocklebur; [6],0
same,Cocklebur plant response rating,cocklebur; [7],70
same,Rice plant response rating,rice,50
same,"Plant response rating (0 to 100 scale), Corn",corn; [4],0
same,Corn plant response rating,corn; [5],0
same,"Plant response rating, Corn",corn; [6],0
same,Corn plant response rating,corn; [7],10
same,"Oat, Wild plant response rating",wild oat; [5],40
same,"Oat, Wild plant response rating",wild oat; [7],60
"CCn1nc(C(C)(C)C)cc1C(=O)Nc1cccc(C(N)=O)n1 [Compound 162, 6-[[[3-(1,1-dimethylethyl)-1-ethyl-1H-pyrazol-5-yl]carbonyl]amino]-2-pyridinecarboxamide]","Plant response rating, Lambsquarters",lambsquarters; [8],100
same,Lambsquarters plant response rating,lambsquarters; [9],80
same,Lambsquarters plant response rating,lambsquarters; [10],90
same,"Plant response rating, Lambsquarters",lambsquarters; [11],100
same,Wheat plant response rating,wheat; [10],10
same,Ducksalad plant response rating,"ducksalad; visual rating, 13 to 15 days",80
same,"Plant response rating, Crabgrass, Large",large crabgrass; [8],100
same,"Crabgrass, Large plant response rating",large crabgrass; [9],20
same,"Crabgrass, Large plant response rating",large crabgrass; [10],40
same,"Plant response rating, Crabgrass, Large",large crabgrass; [11],100
same,"Plant response rating, Barnyardgrass",barnyardgrass [1]; [8],100
same,Barnyardgrass plant response rating,barnyardgrass [1]; [9],0
same,Barnyardgrass plant response rating,barnyardgrass [1]; [10],30
same,"Plant response rating, Barnyardgrass",barnyardgrass [1]; [11],100
same,Barnyardgrass plant response rating,"barnyardgrass [2]; visual rating, 13 to 15 days",80
same,"Plant response rating, Foxtail, Giant",giant foxtail; [8],100
same,"Foxtail, Giant plant response rating",giant foxtail; [9],20
same,"Foxtail, Giant plant response rating",giant foxtail; [10],30
same,"Plant response rating, Foxtail, Giant",giant foxtail; [11],100
same,"Sedge, Umbrella plant response rating","[3]; visual rating, 13 to 15 days",80
same,"Plant response rating, Pigweed",pigweed; [8],100
same,Pigweed plant response rating,pigweed; [9],40
same,Pigweed plant response rating,pigweed; [10],80
same,"Plant response rating, Pigweed",pigweed; [11],100
same,"Plant response rating, Morningglory",morningglory; [8],80
same,Morningglory plant response rating,morningglory; [9],0
same,Morningglory plant response rating,morningglory; [10],60
same,"Plant response rating, Morningglory",morningglory; [11],20
same,"Plant response rating, Surinam Grass",Surinam grass; [8],100
same,Surinam Grass plant response rating,Surinam grass; [9],0
same,Surinam Grass plant response rating,Surinam grass; [10],40
same,"Plant response rating, Surinam Grass",Surinam grass; [11],90
same,Blackgrass plant response rating,blackgrass; [9],20
same,Blackgrass plant response rating,blackgrass; [10],50
same,"Plant response rating, Cocklebur",cocklebur; [8],90
same,Cocklebur plant response rating,cocklebur; [9],10
same,Cocklebur plant response rating,cocklebur; [10],60
same,"Plant response rating, Cocklebur",cocklebur; [11],30
same,Rice plant response rating,"rice; visual rating, 13 to 15 days",80
same,"Plant response rating, Corn",corn; [8],80
same,Corn plant response rating,corn; [9],0
same,Corn plant response rating,corn; [10],0
same,"Plant response rating, Corn",corn; [11],30
same,"Oat, Wild plant response rating",wild oat; [9],20
same,"Oat, Wild plant response rating",wild oat; [10],40
Cc1nn(C(C)(C)C)nc1C(=O)Nc1cccc(C(=O)N2CC=CC2)c1 [Compound 393],"Plant response rating (0 to 100 scale), Lambsquarters",lambsquarters; [4],90
same,Lambsquarters plant response rating,lambsquarters; [5],60
same,Lambsquarters plant response rating,lambsquarters; [12],80
same,Wheat plant response rating,wheat; [5],0
same,Wheat plant response rating,"wheat; 500 g ai/ha, scale 0 to 100, 0 no effect, 100 complete control, preemergence",100
same,Wheat plant response rating,wheat; [12],10
same,Ducksalad plant response rating,ducksalad,90
same,"Plant response rating (0 to 100 scale), Crabgrass, Large",large crabgrass; [4],90
same,"Crabgrass, Large plant response rating",large crabgrass; [5],10
same,"Crabgrass, Large plant response rating",large crabgrass; [12],20
same,"Plant response rating (0 to 100 scale), Barnyardgrass",barnyardgrass [1]; [4],90
same,Barnyardgrass plant response rating,barnyardgrass [1]; [5],10
same,Barnyardgrass plant response rating,barnyardgrass [1]; [12],20
same,Barnyardgrass plant response rating,barnyardgrass [2],90
same,"Plant response rating (0 to 100 scale), Foxtail, Giant",giant foxtail; [4],80
same,"Foxtail, Giant plant response rating",giant foxtail; [5],20
same,"Foxtail, Giant plant response rating",giant foxtail; [12],30
same,"Sedge, Umbrella plant response rating",[3],90
same,"Plant response rating (0 to 100 scale), Pigweed",pigweed; [4],100
same,Pigweed plant response rating,pigweed; [5],40
same,Pigweed plant response rating,pigweed; [12],50
same,"Plant response rating (0 to 100 scale), Morningglory",morningglory; [4],20
same,Morningglory plant response rating,morningglory; [5],30
same,Morningglory plant response rating,morningglory; [12],50
same,"Plant response rating (0 to 100 scale), Surinam Grass",Surinam grass; [4],80
same,Surinam Grass plant response rating,Surinam grass; [5],10
same,Surinam Grass plant response rating,Surinam grass; [12],10
same,Blackgrass plant response rating,blackgrass; [5],20
same,Blackgrass plant response rating,blackgrass; [12],40
same,"Plant response rating (0 to 100 scale), Cocklebur",cocklebur; [4],30
same,Cocklebur plant response rating,cocklebur; [5],30
same,Cocklebur plant response rating,cocklebur; [12],60
same,Rice plant response rating,rice,80
same,"Plant response rating (0 to 100 scale), Corn",corn; [4],40
same,Corn plant response rating,corn; [5],0
same,Corn plant response rating,corn; [12],20
same,"Oat, Wild plant response rating",wild oat; [5],10
same,"Oat, Wild plant response rating",wild oat; [12],30

# From patent publication US20060069132A1, “Azolecarboxamide herbicides” (priority 2004, published 2006)
